# Experimental data taken from patent US20120016124A1, “SEROTONIN REUPTAKE INHIBITORS” (Baylor University, priority 2007, published 2012).
# Read-outs that look alike come from different tables or passages of the source.
# Legend:
# [1] = biological target: serotonin receptor 5-HT2A (Homo sapiens, UniProt P28223); assay: NIH-PDSP binding assay, 5-HT2A (3H-ketanserin); settings: for mean % inhibition 5-HT2A: Table 4, N=4 determinations, significant inhibition >50%, negative = stimulation of binding
# Source text: (§1) Biological Evaluation of selected compounds was done through the National Institutes of Health Psychoactive Drug Screening Program (NIH-PDSP). Biological evaluation of the synthesized molecules consisted of: (a) Neurotransmitter uptake assays for the human serotonin transporter (SERT), (b) Binding assays for the serotonin receptor 5-HT1A, (c) Binding assays for the serotonin receptor 5-HT2A, and (d) Comparison of the biological data obtained for the synthesized molecules with that of currently used psychotherapeutics.
# (§2) All binding assays were carried out with an incubation time of 60 minutes at room temperature. All binding assays were performed in a similar manner, although the buffers used differ from assay to assay.
# (§3) Table 2 below gives the (1) radioligand; (2) assay buffer; (3) unlabelled reference ligand; and (4) references to the commonly-known procedures which were used.
# (§4) The assay buffer A was made up of 50 mM Tris-Cl, 0.1 mM EDTA, and 10 mM MgCl2, at a pH of 7.4. To perform the assay, a 96-well plate was set up as follows:
# (§5) For the 3H-ligands 1-2 nM final concentration of radioligand was used. For 125I-radioligands, 0.05-0.1 nM final concentration was used. The following components were pipetted in the following order: binding buffer, radioligand, cold unknown ligand, cold reference ligand, and membranes. The wells were incubated at room temperature for 60 minutes. At the end of the incubation, the samples were harvested onto pre-soaked (0.3% polyethyleneimine) GF/C filters using a 96-well harvester. They were then washed with 3 quick washes using ice-cold harvest buffer. The filters were removed and air dried overnight. Samples were counted in a 96-well counter using 100 μl of scintillant/well. The Ki value of the reference compound was calculated using the LIGAND Program (Munson and Rodbard, 1980). The percent inhibition was calculated using the following formula: […]
# [2] = biological target: T1, serotonin receptor 5-HT1A (Homo sapiens, UniProt P08908); assay: NIH-PDSP binding assay, 5-HT1A (3H-8-OH-DPAT); settings: for mean % inhibition 5-HT1A: Table 4, N=4 determinations, significant inhibition >50%, negative = stimulation of binding
# T1 sequence (P08908 1-422): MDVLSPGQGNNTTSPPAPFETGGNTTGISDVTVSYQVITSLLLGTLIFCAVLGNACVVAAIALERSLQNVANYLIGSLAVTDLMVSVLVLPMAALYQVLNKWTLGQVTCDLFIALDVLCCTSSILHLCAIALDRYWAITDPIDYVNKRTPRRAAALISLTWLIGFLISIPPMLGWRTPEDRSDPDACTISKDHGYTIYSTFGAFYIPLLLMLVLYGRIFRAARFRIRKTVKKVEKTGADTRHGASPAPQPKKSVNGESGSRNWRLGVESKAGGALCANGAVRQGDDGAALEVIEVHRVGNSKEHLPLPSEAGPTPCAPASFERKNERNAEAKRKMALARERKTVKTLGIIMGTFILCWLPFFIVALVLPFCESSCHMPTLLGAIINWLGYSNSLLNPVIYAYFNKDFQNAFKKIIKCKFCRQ
# Source text: as §1, §2, §3, §4, §5
# [3] = biological target: human serotonin transporter (SERT) (Homo sapiens, UniProt P31645); assay: NIH-PDSP transporter binding assay, SERT (3H-Citalopram); settings: for mean % inhibition SERT: Table 4, N=4 determinations, significant inhibition >50%, negative = stimulation of binding; for affinity for SERT: in words, compounds 1b through 7b of Tables 4 and 5
# Source text: as §1, §2
# The assay buffer H contained 50 mM Tris-HCl, […], and 5 mM KCl, at a pH of 7.4. For the peptide receptor binding assay, filters were pre-soaked for 7 days in 0.3% PEI. To perform the assay, a 96-well plate was set up as follows:
# as §5
# 5HT1A, 5HT2A, SERT = assay: Preliminary Analysis of Biological Data (NIH-PDSP binding profile); settings: in words; compounds 1b through 7b of Tables 4 and 5
# Source text: as §1
# Ten (10) of the sixteen (16) compounds synthesized were biologically evaluated. Compounds 10b, 11b and 12b were previously evaluated for their serotonin uptake ability as described in Example 5. For screening purposes, compounds 1b through 7b were analyzed for their affinity towards the serotonin 5-HT1A receptor as well as their affinity towards the 5-HT2A receptor and the SERT. Data in […] represent mean % inhibition (N=4 determinations) for compound tested at receptor subtypes. Significant inhibition is considered >50%. In cases where negative inhibition (−) is seen, this represents a stimulation of binding. Occasionally, compounds at high concentrations will non-specifically increase binding. Ki values were determined only for compounds with % inhibition>50%.
# SERT = SERT (Homo sapiens, UniProt P31645); settings: reference compounds, Orjales, cited from earlier work
# 5-HT2A = 5-HT2A (Homo sapiens, UniProt P28223); settings: cited from earlier work
# [4] = Table 8, Homologues Type II (Aminopropane Derivatives), — = No significant inhibition
# [5] = Table 8, Homologues Type II (Aminopropane Derivatives)
# [6] = Table 5, determined only for % inhibition >50%
# [7] = Table 7, Homologues Type I (Aminoethane Derivatives), — = No significant inhibition
# [8] = Table 7, Homologues Type I (Aminoethane Derivatives)
# Sequence of serotonin receptor 5-HT2A (P28223 whole entry): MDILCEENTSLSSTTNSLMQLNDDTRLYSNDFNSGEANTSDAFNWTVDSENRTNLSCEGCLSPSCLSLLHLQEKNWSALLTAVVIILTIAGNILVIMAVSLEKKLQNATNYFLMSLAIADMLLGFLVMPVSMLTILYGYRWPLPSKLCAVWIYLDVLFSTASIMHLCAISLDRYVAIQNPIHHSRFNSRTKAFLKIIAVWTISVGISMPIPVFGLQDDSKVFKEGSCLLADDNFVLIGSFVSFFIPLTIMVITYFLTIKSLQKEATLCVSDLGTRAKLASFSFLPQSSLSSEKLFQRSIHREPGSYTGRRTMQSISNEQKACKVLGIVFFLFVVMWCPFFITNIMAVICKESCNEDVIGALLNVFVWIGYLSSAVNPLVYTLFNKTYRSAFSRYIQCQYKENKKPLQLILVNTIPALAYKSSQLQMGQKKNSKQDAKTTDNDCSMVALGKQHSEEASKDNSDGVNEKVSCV
# Sequence of SERT (P31645 whole entry, species assumed): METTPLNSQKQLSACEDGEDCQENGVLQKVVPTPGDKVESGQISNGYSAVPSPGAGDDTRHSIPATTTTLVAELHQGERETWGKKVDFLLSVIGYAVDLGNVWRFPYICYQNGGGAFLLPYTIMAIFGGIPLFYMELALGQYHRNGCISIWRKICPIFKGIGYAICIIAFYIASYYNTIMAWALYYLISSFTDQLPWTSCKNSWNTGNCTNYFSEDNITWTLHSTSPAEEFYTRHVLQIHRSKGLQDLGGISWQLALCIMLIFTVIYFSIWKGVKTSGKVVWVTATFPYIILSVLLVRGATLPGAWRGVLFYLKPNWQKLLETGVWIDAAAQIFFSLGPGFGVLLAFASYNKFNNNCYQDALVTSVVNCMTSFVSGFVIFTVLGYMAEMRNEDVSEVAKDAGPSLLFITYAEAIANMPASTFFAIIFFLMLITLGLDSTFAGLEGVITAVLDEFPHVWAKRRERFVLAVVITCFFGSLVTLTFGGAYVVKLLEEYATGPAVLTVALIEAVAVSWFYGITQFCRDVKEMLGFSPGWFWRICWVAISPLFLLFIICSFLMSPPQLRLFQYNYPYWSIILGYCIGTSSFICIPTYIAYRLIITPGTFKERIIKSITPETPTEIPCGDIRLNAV
# Sequence of human serotonin transporter (SERT) (P31645 whole entry): as the sequence (P31645 whole entry, species assumed) above
# Sequence of 5-HT2A (P28223 whole entry, species assumed): as the sequence (P28223 whole entry) above
SMILES,"Ki [1, 4]","Ki [2, 5]","Ki [3, 5]",also measured
"FC(F)(F)c1ccc(OC(CCN2CCN(c3ccccc3)CC2)c2ccccc2)cc1 (single isomer, unassigned) [Compound 17b]",605 nM,315 nM,761 nM,
Fc1ccc(OC(CN2CCN(c3ccccc3)CC2)c2ccccc2)cc1 (stereo not shown) [Compound 1],,,,"mean % inhibition 5-HT2A [1]: 61.0%; Ki [1, 6]: 3490 nM; melting point: 80 to 82 °C; mean % inhibition 5-HT1A [2]: 98.0%; Ki [2, 6]: 258 nM; mean % inhibition SERT [3]: 12.0%"
Fc1ccc(OC(CN2CCN(c3ccccc3)CC2)c2ccccc2)cc1 (stereo not shown) [Compound 1b],,,,"dual activity towards the 5-HT2A receptor and the SERT (5HT1A, 5HT2A, SERT): desired dual activity towards the 5-HT2A receptor and the SERT, although low; Ki [1, 7]: 1120 nM; Ki [2, 7]: 99 nM; Ki [3, 8]: > 10000 nM; affinity for SERT [3]: low affinity"
FC(F)(F)c1ccc(OC(CCN2CCN(c3ccccc3)CC2)c2ccccc2)cc1 (stereo not shown) [Compound 2b],,,,"dual activity towards the 5-HT2A receptor and the SERT (5HT1A, 5HT2A, SERT): desired dual activity towards the 5-HT2A receptor and the SERT, although low; mean % inhibition 5-HT2A [1]: 81.0%; Ki [1, 6]: 195 nM; mean % inhibition 5-HT1A [2]: 91.0%; Ki [2, 6]: 716 nM; mean % inhibition SERT [3]: 67.0%; Ki [3, 6]: 1870 nM; affinity for SERT [3]: low affinity"
FC(F)(F)c1ccc(OC(CN2CCN(c3ccccc3)CC2)c2ccccc2)cc1 (stereo not shown) [Compound 2b],,,,"Ki [2, 7]: 392 nM; Ki [3, 8]: > 10000 nM"
FC(F)(F)c1ccc(OC(CN2CCN(c3cccc(Cl)c3)CC2)c2ccccc2)cc1 (stereo not shown) [Compound 3],,,,"mean % inhibition 5-HT2A [1]: 17.0%; mean % inhibition 5-HT1A [2]: 71.0%; Ki [2, 6]: 712 nM; mean % inhibition SERT [3]: 22.0%"
FC(F)(F)c1ccc(OC(CN2CCN(c3cccc(Cl)c3)CC2)c2ccccc2)cc1 (stereo not shown) [Compound 3b],,,,"Ki [2, 7]: 649 nM; Ki [3, 8]: 4930 nM"
FC(F)(F)c1ccc(OC(CN2CCN(c3cccc(C(F)(F)F)c3)CC2)c2ccccc2)cc1 (stereo not shown) [Compound 4b],,,,"Ki [2, 7]: 1460 nM; Ki [3, 8]: 4510 nM"
COc1ccccc1N1CCN(CC(Oc2ccc(C(F)(F)F)cc2)c2ccccc2)CC1 (stereo not shown) [Compound 5b],,,,"Ki [1, 7]: > 10000 nM; Ki [2, 7]: 22 nM; Ki [3, 8]: ≥ 10000 nM"
CCCN(CCC)C1CCc2cccc(O)c2C1 (stereo not shown) [Compound 8-OH-DPAT],,,,"Ki (SERT; Table 5, et al. 2003): > 1000 nM; Ki (SERT; Table 7, et. al., 2003): > 1000 nM; Ki (SERT; Table 8, et. al., 2003): > 1000 nM; Ki (5-HT2A): > 1000 nM"
CN1CCN(CC(Oc2ccc(C(F)(F)F)cc2)c2ccccc2)CC1 (stereo not shown) [Compound 9b],,,,"Ki [1, 7]: 405 nM; Ki [3, 8]: 3660 nM"
Fc1ccc2c(C3CCN(CC(Oc4ccc(C(F)(F)F)cc4)c4ccccc4)CC3)noc2c1 (stereo not shown) [Compound 13b],,,,"Ki [1, 7]: > 10000 nM; Ki [2, 7]: 1970 nM; Ki [3, 8]: 1650 nM"
O=C(CCCN1CCN(CC(Oc2ccc(F)cc2)c2ccccc2)CC1)c1ccc(F)cc1 (stereo not shown) [Compound 14b],,,,"Ki [1, 7]: ≥ 10000 nM; Ki [2, 7]: 1180 nM; Ki [3, 8]: 1120 nM"
O=C(CCCN1CCN(CC(Oc2ccc(C(F)(F)F)cc2)c2ccccc2)CC1)c1ccc(F)cc1 (stereo not shown) [Compound 15b],,,,"Ki [1, 7]: 157 nM; Ki [2, 7]: 2730 nM; Ki [3, 8]: 1380 nM"
Fc1ccc(OC(CCN2CCN(c3ccccc3)CC2)c2ccccc2)cc1 (stereo not shown) [Compound 16b],76 nM,9 nM,1130 nM,mean % inhibition 5-HT2A [1]: 96.0%; mean % inhibition 5-HT1A [2]: 100.0%; mean % inhibition SERT [3]: 62.0%
Fc1ccc(OC(CCN2CCN(c3cccc(Cl)c3)CC2)c2ccccc2)cc1 (stereo not shown) [Compound 18b],94 nM,11 nM,289 nM,

SMILES,"Ki [1, 4]","Ki [2, 5]","Ki [3, 5]",also measured
FC(F)(F)c1ccc(OC(CCN2CCN(c3cccc(Cl)c3)CC2)c2ccccc2)cc1 (stereo not shown) [Compound 19b],1340 nM,311 nM,357 nM,
Fc1ccc(OC(CCN2CCN(c3cccc(C(F)(F)F)c3)CC2)c2ccccc2)cc1 (stereo not shown) [Compound 20b],747 nM,20 nM,330 nM,
FC(F)(F)c1ccc(OC(CCN2CCN(c3cccc(C(F)(F)F)c3)CC2)c2ccccc2)cc1 (stereo not shown) [Compound 21b],,193 nM,1330 nM,
COc1ccccc1N1CCN(CCC(Oc2ccc(F)cc2)c2ccccc2)CC1 (stereo not shown) [Compound 22b],761 nM,4 nM,2440 nM,
COc1ccccc1N1CCN(CCC(Oc2ccc(C(F)(F)F)cc2)c2ccccc2)CC1 (stereo not shown) [Compound 23b],1420 nM,42.1 nM,2200 nM,
Fc1ccc(OC(CCN2CCN(c3ncccn3)CC2)c2ccccc2)cc1 (stereo not shown) [Compound 24b],853 nM,803 nM,≥ 10000 nM,
FC(F)(F)c1ccc(OC(CCN2CCN(c3ncccn3)CC2)c2ccccc2)cc1 (stereo not shown) [Compound 25b],1790 nM,434 nM,6820 nM,
CN1CCN(CCC(Oc2ccc(F)cc2)c2ccccc2)CC1 (stereo not shown) [Compound 26b],1330 nM,> 10000 nM,2900 nM,
CN1CCN(CCC(Oc2ccc(C(F)(F)F)cc2)c2ccccc2)CC1 (stereo not shown) [Compound 27b],1740 nM,9560 nM,7010 nM,
O=C(c1ccc(F)cc1)C1CCN(CCC(Oc2ccc(F)cc2)c2ccccc2)CC1 (stereo not shown) [Compound 28b],69.6 nM,234 nM,6480 nM,
O=C(c1ccc(F)cc1)C1CCN(CCC(Oc2ccc(C(F)(F)F)cc2)c2ccccc2)CC1 (stereo not shown) [Compound 29b],73.7 nM,304 nM,1240 nM,
Fc1ccc(OC(CCN2CCC(c3noc4cc(F)ccc34)CC2)c2ccccc2)cc1 (stereo not shown) [Compound 30b],398 nM,8.6 nM,1690 nM,
Fc1ccc2c(C3CCN(CCC(Oc4ccc(C(F)(F)F)cc4)c4ccccc4)CC3)noc2c1 (stereo not shown) [Compound 31b],23.2 nM,420 nM,718 nM,
O=C(CCCN1CCN(CCC(Oc2ccc(F)cc2)c2ccccc2)CC1)c1ccc(F)cc1 (stereo not shown) [Compound 32b],420 nM,2640 nM,1350 nM,
O=C(CCCN1CCN(CCC(Oc2ccc(C(F)(F)F)cc2)c2ccccc2)CC1)c1ccc(F)cc1 (stereo not shown) [Compound 33b],406 nM,5010 nM,725 nM,
